# Laboratory results from patent publication US20150342954A1, “2-BENZYL, 3-(PYRIMIDIN-2-YL) SUBSTITUTED PYRAZOLES USEFUL AS SGC STIMULATORS” (IRONWOOD PHARMACEUTICALS, INC., priority 2011, published 2015).
# Where two headings read alike, the source gives them in different places.
# Tests used:
# [1] = target: T1, Human soluble guanylate cyclase enzyme (hsGC) (Homo sapiens, UniProt Q02108+Q02153); assay: Purified human sGC enzyme synergy assay in the presence of 1 μM sodium nitroprusside (SNP); type: biochemical; settings: compound at 30 μM, presence of 1 μM SNP; Table 5A
# T1 construct: purchased Enzo Inc. ALX-201-177
# T1 sequence (Q02153 1-619): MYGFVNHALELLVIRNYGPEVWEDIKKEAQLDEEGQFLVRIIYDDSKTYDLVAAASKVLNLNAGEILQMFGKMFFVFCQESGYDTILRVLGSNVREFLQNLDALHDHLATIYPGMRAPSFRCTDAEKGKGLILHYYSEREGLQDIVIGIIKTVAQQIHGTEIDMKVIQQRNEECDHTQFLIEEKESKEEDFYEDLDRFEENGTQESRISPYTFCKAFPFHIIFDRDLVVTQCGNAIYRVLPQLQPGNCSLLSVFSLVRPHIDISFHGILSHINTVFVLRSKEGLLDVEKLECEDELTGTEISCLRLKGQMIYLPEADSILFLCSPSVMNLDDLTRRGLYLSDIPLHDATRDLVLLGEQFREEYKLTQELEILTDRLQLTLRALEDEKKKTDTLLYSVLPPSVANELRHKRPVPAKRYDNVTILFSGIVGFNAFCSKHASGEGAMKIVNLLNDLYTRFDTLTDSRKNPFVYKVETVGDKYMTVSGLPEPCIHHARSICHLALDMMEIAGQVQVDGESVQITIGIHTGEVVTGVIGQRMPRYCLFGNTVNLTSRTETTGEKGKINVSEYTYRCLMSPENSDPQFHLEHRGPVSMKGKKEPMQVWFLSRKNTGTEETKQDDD
# T1 sequence (Q02108 1-690): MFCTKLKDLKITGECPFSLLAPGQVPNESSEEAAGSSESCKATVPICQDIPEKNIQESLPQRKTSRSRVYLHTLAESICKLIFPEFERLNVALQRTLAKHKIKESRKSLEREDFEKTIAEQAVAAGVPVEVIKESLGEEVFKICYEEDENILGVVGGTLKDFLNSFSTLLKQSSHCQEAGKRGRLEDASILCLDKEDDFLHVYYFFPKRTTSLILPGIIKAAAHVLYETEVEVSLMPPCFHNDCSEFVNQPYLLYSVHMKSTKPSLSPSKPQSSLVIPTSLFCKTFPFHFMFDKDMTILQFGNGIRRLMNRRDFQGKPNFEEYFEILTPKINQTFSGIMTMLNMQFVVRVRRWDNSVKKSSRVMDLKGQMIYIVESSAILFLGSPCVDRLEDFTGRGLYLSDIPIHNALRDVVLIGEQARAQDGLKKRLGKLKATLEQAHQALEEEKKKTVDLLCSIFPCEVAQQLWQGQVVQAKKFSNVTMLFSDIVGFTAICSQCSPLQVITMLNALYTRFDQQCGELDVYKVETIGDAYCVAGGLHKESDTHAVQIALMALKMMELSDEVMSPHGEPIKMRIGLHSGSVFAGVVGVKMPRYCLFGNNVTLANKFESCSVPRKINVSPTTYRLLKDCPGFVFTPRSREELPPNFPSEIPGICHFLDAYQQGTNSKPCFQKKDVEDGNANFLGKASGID
# Protocol: (§1) Human soluble guanylate cyclase enzyme (hsGC) obtained from Enzo Inc. (P/N: ALX-201-177) was used to evaluate the activity of test compounds. The assay reactions contained 0.1 M Tris (pH 8.0), 0.5 mg/mL BSA (pH 8.0), 2 mM DTT, 2 mM MgCl2, 300 μM GTP, 1 mM 3-isobutyl-1-methylxanthine (IBMX) and 5 ng human soluble guanylate cyclase enzyme. Test compounds in DMSO were then added (2 μL, 10 or 30 μM final concentration) and incubated (200 μL, 96-well plate format) at 37° C. for 30 minutes. The controls were carried out using 2 μL DMSO. After the 30 minute incubation, the reaction was stopped with the addition of 200 μl of cold methanol. The plate was then centrifuged at 3,200 rpm for 10 minutes at room temperature. Supernatants (200 μL) were collected and transferred to a new 96 well plate for analysis.
# (§2) An 8 point cGMP (Sigma-Aldrich P/N: G6129) standard curve was prepared in assay buffer ranging from 0.156-20 μM. Samples for the cGMP standard curve were then diluted with an equal volume of methanol resulting in final cGMP concentrations of 0.078-10 μM.
# (§3) The cGMP standard curve was generated using GraphPad Prism Software.
# (§4) Calculations: Specific Activity was determined by the amount of cGMP formed (nmoles) per mg of sGC per min. Enzyme “fold-change” was calculated by dividing Specific Activity for test compounds by Specific Activity of DMSO controls.
# Biological Measurement by the Purified Human sGC Enzyme Synergy Performed in the Presence of Sodium Nitroprusside (SNP), a Nitric Oxide Donor
# Enzyme assays were performed as described above, but was done in the absence or presence of 1 μM sodium nitroprusside (SNP).
# [2] = target: T1, Human soluble guanylate cyclase enzyme (hsGC); assay: Purified human sGC enzyme activity assay (without SNP); type: biochemical; settings: compound at 30 μM, absence of SNP; fold over DMSO control; Table 5A
# Protocol: Biological Activity Measurements by the Purified Human sGC Enzyme Activity Assay
# as §1, §2, §3, §4
# [3] = target: T2, soluble guanylate cyclase (sGC) (Homo sapiens, UniProt Q02108+Q02153); assay: sGC-HEK-cGMP assay (run with SNP incubation); type: cell-based; settings: for Emax: Table 3A, 10 μM SNP, 100% = 30 μM BAY 41-2272 with 10 μM SNP, read-out: HEK assay Emax-unconstrained (Percent); for HEK MEC-10: concentration that would elicit 10% of the Emax in the presence of 10 μM SNP; for HEK MEC-10 / EC50: Table 3D; for EC50: in the presence of 10 μM SNP
# T2 construct: endogenously expressing soluble guanylate cyclase (sGC); endogenous in cells; host or cells: HEK293
# T2 sequence (Q02153 1-619): T1 sequence (Q02153 1-619)
# T2 sequence (Q02108 1-690): T1 sequence (Q02108 1-690)
# Protocol: Biological Activity Measurement by the sGC-HEK-cGMP Assay
# (Assay Run with SNP Incubation)
# Human embryonic kidney cells (HEK293), endogenously expressing soluble guanylate cyclase (sGC), were used to evaluate the activity of test compounds. Compounds stimulating the sGC receptor should cause an increase in the intracellular concentration of cGMP. HEK 293 cells were seeded in Dulbecco's Modification of Eagle's Medium supplemented with fetal bovine serum (10% final) and L-glutamine (2 mM final) in a 2004 volume at a density of 1×10^5 cells/well in a poly-D-lysine coated 96 well flat bottom plate and grown overnight at 37° C. Medium was aspirated and cells were washed with 1× Hank's Buffered Saline Salt Solution (2004). Cells were then incubated for 15 minutes at 37° C. with 0.5 mM 3-isobutyl-1-methylxanthine (2004). Test article and sodium nitroprusside were then added to the assay mixture (24 each) and incubated at 37° C. for 10 minutes. After the 10 minute incubation, the assay mixture was aspirated and 0.1M HCl (2004) was added to the cells. The plate was incubated at 4° C. for 30 minutes in the 0.1M HCl to stop the reaction and lysed the cells. The plates were then centrifuged at 1,200 g for 5 minutes at room temperature. Supernatants were collected and transferred to a new flat bottom 96 well plate for analysis. Vehicle controls were carried out using DMSO (1%). A known sGC stimulator, BAY 41-2272, was used as the positive control. Samples were diluted with an equal volume of 1 M Ammonium Acetate (pH 7) to neutralize samples for better chromatography. A 2×cGMP standard curve was prepared in 0.1 M HCl and then diluted with an equal volume of 1 M Ammonium Acetate, with the following final concentrations in nM: 1024, 512, 256, 128, 64, 32, 16, 8, 4, 2, 1.cGMP concentrations were determined from each sample using the LC/MS conditions (Table 2 below) and calculated standard curve. EC50 values were calculated from concentration-response curves generated with GraphPad Prism Software.
# [4] = top of concentration-response curve not fitted to 100%
# [5] = top of concentration-response curve not fitted to 100%, read-out: HEK assay EC50-unconstrained
Structure (SMILES),Enzyme Activity (increase at 30 μM with SNP) [1],Enzyme Activity (increase at 30 μM without SNP) [2],"Emax [3, 4] [%]",HEK MEC-10 [3],EC50 ([3]; read-out: HEK assay EC50) [µM],"EC50 [3, 5] [µM]"
Nc1nc(-c2cc(-c3ncco3)n(Cc3ccccc3F)n2)ncc1NC(=O)C1(F)CC1 [Compound 31],D (10 or <20 fold increase),B (2 to <5 fold increase),80 to 100,C (0.1 to <1 μM),< 20,1 to 5
Fc1ccccc1Cn1nc(-c2ncccn2)c(F)c1-c1ccon1 [Compound 34],D (10 or <20 fold increase),B (2 to <5 fold increase),20 to 40,D (1 to <10 μM),60 to 100,1 to 5
"Oc1nc(-c2cc(-c3ccon3)n(Cc3ccccc3F)n2)ncc1Sc1ccccc1 [Compound 39, 2-(1-(2-fluorobenzyl)-5-(isoxazol-3-yl)-1H-pyrazol-3-yl)-5-(phenylthio)pyrimidin-4-ol]",E (20 to 30 fold increase),D (10 or <20 fold increase),100 to 120,A (0.001 to <0.01 μM),< 20,0.01 to 0.5
Oc1nc(-c2cc(-c3ccon3)n(Cc3ccccc3)n2)ncc1F [Compound 41],D (10 or <20 fold increase),C (5 to <10 fold increase),80 to 100,B (0.01 to <0.1 μM),< 20,0.5 to 1
Oc1nc(-c2cc(-c3ccon3)n(Cc3ccccc3F)n2)ncc1-c1nccs1 [Compound 42],D (10 or <20 fold increase),B (2 to <5 fold increase),40 to 60,C (0.1 to <1 μM),< 20,0.5 to 1
Oc1nc(-c2cc(-c3ccon3)n(Cc3ccccc3F)n2)ncc1-c1ccccn1 [Compound 43],D (10 or <20 fold increase),B (2 to <5 fold increase),40 to 60,C (0.1 to <1 μM),< 20,1 to 5
Oc1nc(-c2cc(-c3nccs3)n(Cc3ccccc3F)n2)ncc1F [Compound 44],D (10 or <20 fold increase),B (2 to <5 fold increase),40 to 60,C (0.1 to <1 μM),< 20,0.01 to 0.5
Oc1nc(-c2cc(-c3ccon3)n(Cc3ccccc3F)n2)ncc1-c1ccsc1 [Compound 45],B (2 to <5 fold increase),A (no increase to <2 fold increase),10 to 20,E (10 to 50 μM),100 to 300,5 to 10
Fc1ccccc1Cn1nc(-c2ncc(Br)c(Cl)n2)cc1-c1ccon1 [Compound 52],D (10 or <20 fold increase),B (2 to <5 fold increase),40 to 60,D (1 to <10 μM),60 to 100,10 to 50
O=c1[nH]c(-c2cc(-c3ccon3)n(Cc3ccccc3F)n2)nc(Cl)c1Cl [Compound 54],C (5 to <10 fold increase),A (no increase to <2 fold increase),40 to 60,D (1 to <10 μM),40 to 60,5 to 10

# Continued, values first:
Enzyme Activity (increase at 30 μM with SNP) [1],Enzyme Activity (increase at 30 μM without SNP) [2],"Emax [3, 4] [%]",HEK MEC-10 [3],EC50 ([3]; read-out: HEK assay EC50) [µM],"EC50 [3, 5] [µM]",Structure (SMILES)
D (10 or <20 fold increase),B (2 to <5 fold increase),40 to 60,E (10 to 50 μM),< 20,5 to 10,"CSc1cnc(-c2cc(-c3ccon3)n(Cc3ccccc3F)n2)nc1O [Compound 29, 2-(1-(2-fluorobenzyl)-5-(isoxazol-3-yl)-1H-pyrazol-3-yl)-5-(methylthio)pyrimidin-4-ol]"
C (5 to <10 fold increase),B (2 to <5 fold increase),80 to 100,D (1 to <10 μM),< 20,5 to 10,Oc1nc(-c2cc(-c3ccon3)n(Cc3ccccc3F)n2)ncc1-c1ncco1 [Compound 38]
E (20 to 30 fold increase),C (5 to <10 fold increase),60 to 80,C (0.1 to <1 μM),< 20,1 to 5,CC(C)(CC(F)(F)F)C(=O)Nc1cnc(-c2cc(-c3ccon3)n(Cc3ccccc3F)n2)nc1N [Compound 53]
F (>30 fold increase),C (5 to <10 fold increase),100 to 120,C (0.1 to <1 μM),< 20,1 to 5,CC1(C(=O)Nc2cnc(-c3cc(-c4ncco4)n(Cc4ccccc4F)n3)nc2N)CC1(F)F (stereo not drawn) [Compound 55]
